Broadly, the IC50 is the concentration that gives 50% inhibition. Lower therefore signals greater potency in that assay. In general, inhibition refers to the drop in the measured response relative to a control, in per cent.

Among the data in patent publication US20250368649A1, “TETRAHYDROPYRIDOPYRIMIDINE PAN-KRAS INHIBITORS” (Mirati Therapeutics, Inc., priority 2022, published 2025) are IC50 and inhibition values, retold here.

The subject of test [1] is MKN1 cells. The test is described as follows: Inhibition of KRas-mediated phosphorylation of ERK (Cisbio HTRF pERK), MKN1 cells. The following applies: Homo sapiens, MKN-1, 3 hour compound incubation, Cisbio pERK HTRF. Format: cell-based. The method, then: (§1) Inhibition of KRas Phosphorylation of ERK (HTRF) by Exemplary Compounds of Formula (I) Cisbio HTRF Advanced pERK Assay Catalog #64AERPEH • Cells: MKN1, PSN1 • Procedure: • Day 1: Seed 6,000 cells/well -25 µl/well in 384-well white solid bottom plate; RPM1_10% FBS.
For orientation: Time-resolved FRET reads energy transfer from a long-lived donor to a nearby acceptor.

For test [2], the system named is PSN1 cells. As to the kind of experiment: Inhibition of KRas-mediated phosphorylation of ERK (Cisbio HTRF pERK), PSN1 cells. The note with it: Homo sapiens, PSN1, 3 h, 3 hour compound incubation, Cisbio pERK HTRF. Format: cell-based. The method, then: as §1
For test [3], the system named is ASPC1 cells. As to the kind of experiment: Inhibition of KRas-mediated phosphorylation of ERK (Cisbio HTRF pERK), ASPC1 cells. The class given is cell-based. The following applies: Homo sapiens, AsPC-1 cells; for IC50: ASPC1, 3 h, 3 hr compound incubation, Cisbio pERK HTRF.
Test [4] deals with H727 cells. As to the kind of experiment: Inhibition of KRas-mediated phosphorylation of ERK (Cisbio HTRF pERK), H727 cells. Format: cell-based. The following applies: Homo sapiens; for IC50: NCI-H727, 3 h, 3 hr compound incubation, Cisbio pERK HTRF.
The subject of test [5] is H460 cells. As to the kind of experiment: Inhibition of KRas-mediated phosphorylation of ERK (Cisbio HTRF pERK), H460 cells. The class given is cell-based. The following applies: Homo sapiens, NCI-H460, single point at 100 nM, 3 hrs compound incubation.
Test [6] deals with HCT116 cells. As to the kind of experiment: Inhibition of KRas-mediated phosphorylation of ERK (Cisbio HTRF pERK), HCT116 cells. The class given is cell-based. The note with it: Homo sapiens; for inhibition at 0.1 µM: HCT-116, single point at 100 nM, 3 hrs compound incubation; for IC50: HCT-116, 3 h, 3 hr compound incubation, Cisbio pERK HTRF.
In test [7] the target is KRas G12D (Homo sapiens, UniProt P01116, G12D). The test is described as follows: biochemical. The following applies: Binding to KRas (IC50 nM) G12D, TR-FRET displacement, KRas G12D.
Sequence of KRas G12D (P01116 1-169 isoform P01116-2 G12D): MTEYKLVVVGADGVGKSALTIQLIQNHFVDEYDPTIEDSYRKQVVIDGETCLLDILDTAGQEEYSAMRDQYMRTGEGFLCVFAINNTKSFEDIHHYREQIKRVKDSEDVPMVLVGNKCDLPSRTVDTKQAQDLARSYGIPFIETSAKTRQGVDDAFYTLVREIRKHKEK
For test [8], the target named is KRas G12R (Homo sapiens, UniProt P01116, G12R). As to the kind of experiment: biochemical. The note with it: Binding to KRas (IC50 nM) G12R, TR-FRET displacement, KRas G12R.
Sequence of KRas G12R (P01116 1-169 isoform P01116-2 G12R): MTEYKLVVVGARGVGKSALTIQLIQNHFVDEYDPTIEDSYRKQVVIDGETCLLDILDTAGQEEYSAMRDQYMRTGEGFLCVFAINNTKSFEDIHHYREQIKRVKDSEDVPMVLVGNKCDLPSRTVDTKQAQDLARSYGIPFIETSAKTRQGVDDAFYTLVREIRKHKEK
The target of test [9] is KRas G12V (Homo sapiens, UniProt P01116, G12V). The test is described as follows: biochemical. The following applies: Binding to KRas (IC50 nM) G12V, TR-FRET displacement, KRas G12V.
Sequence of KRas G12V (P01116 1-169 isoform P01116-2 G12V): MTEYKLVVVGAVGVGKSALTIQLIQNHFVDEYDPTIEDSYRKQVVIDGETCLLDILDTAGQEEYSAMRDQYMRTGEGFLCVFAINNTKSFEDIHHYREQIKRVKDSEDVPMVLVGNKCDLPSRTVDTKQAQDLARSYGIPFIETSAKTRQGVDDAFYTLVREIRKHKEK
The subject of test [10] is A549 cells. As to the kind of experiment: Inhibition of KRas-mediated phosphorylation of ERK (Cisbio HTRF pERK), A549 cells. Format: cell-based. The following applies: Homo sapiens; for inhibition at 0.1 µM: single point at 100 nM, 3 hrs compound incubation; for IC50: A549, 3 h, 3 hr compound incubation, Cisbio pERK HTRF.
The subject of test [11] is H358 cells. The test is described as follows: Inhibition of KRas-mediated phosphorylation of ERK (Cisbio HTRF pERK), H358 cells. The class given is cell-based. The note with it: Homo sapiens, NCI-H358, single point at 100 nM, 3 hrs compound incubation.

For `CCc1c(F)ccc2cc(O)cc(N3CCc4c(nc(OC[C@@]56CCCN5C[C@H](F)C6)nc4N4CCCn5nc(CNC(=O)N(C)C)cc5C4)C3)c12` [Example 354, 3-((5-(7-(8-ethyl-7-fluoro-3-hydroxynaphthalen-1-yl)-2-(((2R,7aS)-2-fluorohexahydro-1H-pyrrolizin-7a-yl)methoxy)-5,6,7,8-tetrahydropyrido[3,4-d]pyrimidin-4-yl)-5,6,7,8-tetrahydro-4H-pyrazolo[1,5-a][1,4]diazepin-2-yl)methyl)-1,1-dimethylurea], the IC50 in [1] is 814 nM; in test [2] it was more than 10000 nM; in test [3] it was 1060 nM; in [4], 1220 nM; in test [7] it was 3 nM; in test [8], 5 nM. Also, in test [9], the IC50 was 4 nM. Moreover, the inhibition at 0.1 µM was determined as 8% in [5] and 11% in [6].
As for `CCc1c(F)ccc2cc(O)cc(N3CCc4c(nc(OC[C@@]56CCCN5C[C@H](F)C6)nc4N4CCCn5nc(N(C)C(C)=O)cc5C4)C3)c12` [Example 355, N-(5-(7-(8-ethyl-7-fluoro-3-hydroxynaphthalen-1-yl)-2-(((2R,7aS)-2-fluorohexahydro-1H-pyrrolizin-7a-yl)methoxy)-5,6,7,8-tetrahydropyrido[3,4-d]pyrimidin-4-yl)-5,6,7,8-tetrahydro-4H-pyrazolo[1,5-a][1_4]diazepin-2-yl)-N-methylacetamide], the IC50 in test [1] is 417 nM; in [2] it was more than 10000 nM; in test [3] it was 597 nM; in test [4] it was 562 nM; in test [7], 3 nM; in test [8], 9 nM. In test [9], this compound registered an IC50 of 6 nM. For the same compound, the inhibition at 0.1 µM is 18% in test [5] and -28% in [6].
Consider `CCc1c(F)ccc2cc(O)cc(N3CCc4c(nc(OC[C@@]56CCCN5C[C@H](F)C6)nc4N4CCCc5nc[nH]c5C4)C3)c12` [Example 357, 4-(4-(7,8-dihydroimidazo[4,5-c]azepin-5(3H,4H,6H)-yl)-2-(((2R,7aS)-2-fluorohexahydro-1H-pyrrolizin-7a-yl)methoxy)-5,6-dihydropyrido[3,4-d]pyrimidin-7(8H)-yl)-5-ethyl-6-fluoronaphthalen-2-ol], for which the IC50 was 2600 nM in [1]; more than 10000 nM in test [2]; 4410 nM in test [3]; 1830 nM in [4]; 11 nM in [7]; 7 nM in [8]. The compound also gave an IC50 in [9] of 6 nM. Further, the inhibition at 0.1 µM in test [5] was 12%; in [6], -20%.
Consider `CCc1c(F)ccc2cc(O)cc(N3CCc4c(nc(OC[C@@]56CCCN5C[C@H](F)C6)nc4N4CCCn5nc(C(=O)O)cc5C4)C3)c12` [Example 389, 5-(7-(8-ethyl-7-fluoro-3-hydroxynaphthalen-1-yl)-2-(((2R,7aS)-2-fluorohexahydro-1H-pyrrolizin-7a-yl)methoxy)-5,6,7,8-tetrahydropyrido[3,4-d]pyrimidin-4-yl)-5,6,7,8-tetrahydro-4H-pyrazolo[1,5-a][1,4]diazepine-2-carboxylic acid], for which the IC50 in test [1] is 54.8 nM; in [2] it was more than 10000 nM; in test [3], 492 nM; in [4] it was 214 nM; in test [6] it was more than 10000 nM; in test [7] it was less than 2 nM. Moreover, the IC50 in test [8] and in [9] was less than 2 nM in each case. Besides, the inhibition at 0.1 µM in test [10] is -36%; in test [11], 23%.
For `CCc1c(F)ccc2cc(O)cc(N3CCc4c(nc(OC[C@@]56CCCN5C[C@H](F)C6)nc4N4CCCC5(CSC5)C4)C3)c12` [Example 421, 5-ethyl-6-fluoro-4-(2-(((2R,7aS)-2-fluorohexahydro-1H-pyrrolizin-7a-yl)methoxy)-4-(2-thia-6-azaspiro[3.5]nonan-6-yl)-5,6-dihydropyrido[3,4-d]pyrimidin-7(8H)-yl)naphthalen-2-ol], the IC50 in test [1] amounted to 449 nM; in test [2] it was 9630 nM; in test [3], 377 nM; in test [4], 275 nM; in test [10], 322 nM; in test [6], 3260 nM. The IC50 in test [7] was 5 nM; in test [8] it was 3 nM; in test [9], less than 2 nM.
As to `CCc1c(F)ccc2cc(O)cc(N3CCc4c(nc(OC[C@@]56CCCN5C[C@H](F)C6)nc4N4Cc5cn(C(=O)N(C)C)nc5CC(C)(C)C4)C3)c12` [Example 424, 5-(7-(8-ethyl-7-fluoro-3-hydroxynaphthalen-1-yl)-2-(((2R,7aS)-2-fluorohexahydro-1H-pyrrolizin-7a-yl)methoxy)-5,6,7,8-tetrahydropyrido[3,4-d]pyrimidin-4-yl)-N,N,7,7-tetramethyl-5,6,7,8-tetrahydropyrazolo[4,3-c]azepine-2(4H)-carboxamide], the IC50 in test [1] is 148 nM; in test [2], more than 10000 nM; in test [3] it was 926 nM; in test [4] it was 460 nM; in [10] it was 698 nM; in [7] it was 31 nM. The IC50 in test [8] was found to be 9 nM; in test [9] it was 5 nM.
Consider `CCc1c(F)ccc2cc(O)cc(N3CCc4c(nc(OC[C@]56CCCN5[C@H](COC(=O)N(C)C)CC6)nc4N4CCC[C@@](C)(O)C4)C3)c12` [Example 435, ((3S,7aR)-7a-(((7-(8-ethyl-7-fluoro-3-hydroxynaphthalen-1-yl)-4-((R)-3-hydroxy-3-methylpiperidin-1-yl)-5,6,7,8-tetrahydropyrido[3,4-d]pyrimidin-2-yl)oxy)methyl)hexahydro-1H-pyrrolizin-3-yl)methyl dimethylcarbamate], for which the IC50 in [1] worked out at 40 nM; in [2], 4200 nM; in [3] it was 172 nM; in test [4], 578 nM; in [10], 164 nM; in [6], 215 nM. The IC50 in test [7] amounted to 2 nM; in [8], 2 nM; in test [9], 3 nM.
Regarding `O=C1CC2(CCCN(c3nc(OC[C@@]45CCCN4C[C@H](F)C5)nc4c3CCN(c3cc(O)cc5ccc(F)c(Cl)c35)C4)C2)C(=O)N1` (stereo partly drawn) [Example 467, 7-(7-(8-chloro-7-fluoro-3-hydroxynaphthalen-1-yl)-2-(((2R,7aS)-2-fluorohexahydro-1H-pyrrolizin-7a-yl)methoxy)-5,6,7,8-tetrahydropyrido[3,4-d]pyrimidin-4-yl)-2,7-diazaspiro[4.5]decane-1,3-dione], the IC50 in [1] is 37.2 nM; in [2], 841 nM; in test [3] it was 533 nM; in test [4], 257 nM; in [10], 226 nM; in test [6], 296 nM. Moreover, the IC50 in [7], in [8] and in test [9] was less than 2 nM each time.
Consider `CCCCN(C)C(=O)c1cc2n(n1)CCCN(c1nc(OC[C@@]34CCCN3C[C@H](F)C4)nc3c1CCN(c1cc(O)cc4ccc(F)c(CC)c14)C3)C2` [Example 496, N-butyl-5-(7-(8-ethyl-7-fluoro-3-hydroxynaphthalen-1-yl)-2-(((2R,7aS)-2-fluorohexahydro-1H-pyrrolizin-7a-yl)methoxy)-5,6,7,8-tetrahydropyrido[3,4-d]pyrimidin-4-yl)-N-methyl-5,6,7,8-tetrahydro-4H-pyrazolo[1,5-a][1,4]diazepine-2-carboxamide], for which the IC50 in test [1] was 16.3 nM; in [2], 5350 nM; in test [3], 10 nM; in [4], 19 nM; in test [7], less than 2 nM; in test [8] it was less than 2 nM. In test [9], this compound had an IC50 of less than 2 nM. Also, the inhibition at 0.1 µM in test [3] (ASPC1, single point at 100 nM, 3 hrs compound incubation) is 96%; in test [4] (NCI-H727, single point at 100 nM, 3 hrs compound incubation), 71%; in [10], 95%; in [11] it was 97%.
